# Target: T1, OleD (Streptomyces antibioticus, UniProt Q53685, P55A/R82V/R83E/T84P)
# T1 construct: made in house; host or cells: PURExpress In Vitro Protein Synthesis Kit (NEB E6800L), cell-free transcription/translation, linear DNA with T7 promoter
# Test: DLEnCA with purified recombinant OleD, agarose gel readout of MfeI digestion of probe DNA
# Format: biochemical
# Details: purified OleD 0.5 μM, acceptor 0.5 mM, 2% agarose gel
# Procedure: FIG. 2A-FIG. 2D. DNA-Linked Enzyme-Coupled Assay using purified model enzyme (OleD). A. The OleD-catalyzed glucosylation of kaempferol using UDP-Glc as a donor-molecule. B. Purified recombinant OleD (0.5 μM) was incubated with probe DNA (4.5 nM) in the presence of kaempferol (0.5 mM) and various concentrations of UDP-Glc at 37° C. for 1 hour. Following incubation with TbGT, DNA was digested with MfeI. Digests were analyzed on a 2% agarose gel. […] (ii) A representative gel of the UDP-Glc titration reaction, as-well-as a “ladder” depicting expected DNA digestion sizes, is shown. C. […] Digests were analyzed on a 2% agarose gel (n=4). […] Digests were analyzed on a 2% agarose gel (n=4). […]
# In order to verify that DNA protection using TbGT could be used to follow an enzymatic reaction under conditions amenable to downstream DNA analyses, the ability of recombinant OleD to reduce concentrations of UDP-Glc while in the presence of the substrate kaempferol was first tested. […] To identify if this reaction could be monitored by modification of DNA, recombinant OleD was purified (FIG. 5) and incubated with 5-hm-cytosine-modified probe DNA (4.5 nM probe DNA containing 2.5 μM modified 5-hm-cytosines), kaempferol (0.5 mM), and UDP-Glc concentrations varying from 10 μM to 1 mM in a buffered solution. […]
# T1 sequence (Q53685 other isoform, or with tags, fused parts or gaps P55A/R82V/R83E/T84P): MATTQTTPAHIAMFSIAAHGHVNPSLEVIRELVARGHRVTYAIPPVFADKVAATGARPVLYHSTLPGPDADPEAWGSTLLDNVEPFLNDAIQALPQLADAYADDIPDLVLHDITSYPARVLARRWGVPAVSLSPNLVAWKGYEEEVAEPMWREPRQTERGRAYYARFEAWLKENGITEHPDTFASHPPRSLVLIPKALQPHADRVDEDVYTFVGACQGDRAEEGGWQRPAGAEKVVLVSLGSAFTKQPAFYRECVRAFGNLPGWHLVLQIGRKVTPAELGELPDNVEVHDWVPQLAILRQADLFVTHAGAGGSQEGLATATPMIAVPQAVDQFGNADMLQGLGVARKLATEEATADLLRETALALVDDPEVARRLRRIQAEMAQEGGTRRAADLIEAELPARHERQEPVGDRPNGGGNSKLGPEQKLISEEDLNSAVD
Compound,"digestion of probe DNA by MfeI (loss of TbGT protection) (20 μM starting UDP-Glc, all components present)",digestion of probe DNA by MfeI (loss of TbGT protection) (UDP-Glc titration)
"O=c1c(O)c(-c2ccc(O)cc2)oc2cc(O)cc(O)c12 [I, kaempferol]",significant DNA digestion occurred,
"O=C(O)c1ccc(O)cc1 [XI, 4-hydroxybenzoic acid]",,no DNA was digested

# From patent publication US10829798B2, “DNA-linked enzyme-coupled assays” (THE REGENTS OF THE UNIVERSITY OF CALIFORNIA, priority 2014, dated 2020)
